Test results from patent publication US12215129B2, “Antibacterial cyclopeptides targeting acinetobacter and other gram-negative pathogens” (priority 2020, dated 2025).
≈ marks a conversion by molar mass, not a printed value. Where “and” joins values, the source holds several entries; their conditions need not be identical. Equal entries are not always repeated. Where two headings read alike, the source gives them in different places. Marks after values point to notes of the source that are not given here. Starred links: 1 amine or outer side, 2 acyl side, 3 side chain; linkers in the order of their positions; H or OH if unused. Positions of bridges follow the written chain, without caps; N, C: chain ends. Non-standard residues stand in square brackets, D forms with d. Residues, ends and D or L forms follow the SMILES beside them. *: point of attachment. dAsp(3R-OH) = N[C@@H](C(=O)O)[C@@H](O)C(=O)O; Palmitoleoyl = CCCCCC/C=C\CCCCCCCC(=O)*; X1 = NC[C@H](O)[C@@H](N[*:1])C(=O)[*:2]; X2 = CCC(C)(O)[C@H](N[*:1])C(=O)[*:2]; d(aIle) = CC[C@H](C)[C@@H](N)C(=O)O; Myristoyl = CCCCCCCCCCCCCC(=O)*; dOrn = NCCC[C@@H](N)C(=O)O; hSer = N[C@@H](CCO)C(=O)O

Assays:
[1] = human, in vivo; cited from earlier work
[2] = system: Acinetobacter baumannii (ATCC 19606)
A. baylyi = format: cell-based, Acinetobacter baylyi; conditions: for sensitivity of Δ1ptE A. baylyi strain: at 8 μg/mL; for MIC against A. baylyi compared with A. baumannii: nonpathogenic relative A. baylyi; for nature of growth inhibition: plating of inhibited wells from A. baylyi broth cultures
[3] = system: Klebsiella pneumoniae (ATCC BAA-1705); format: cell-based
Escherichia coli = format: cell-based
[4] = system: Enterococcus faecalis (ATCC 29212)
[5] = system: clinical A. baumannii complex isolates
A. baumannii ATCC 17978 = experiment: Thigh infection neutropenic mouse model, efficacy (CFU/thigh); format: in vivo, Acinetobacter baumannii; conditions: for Decrease (%) / Δ / CFU/thigh Time post inoculation 2, 26 h / Log (CFU/thigh) Time post inoculation 2, 26 h / CFU/thigh Time post inoculation 2, 26 h, Mean / Log (CFU/thigh) Time post inoculation 2, 26 h, Mean / Dilution (CFU/plate) 0 / Dilution (CFU/plate) 10^1 / Dilution (CFU/plate) 10^2 / Dilution (CFU/plate) 10^3 / Dilution (CFU/plate) 10^4 / Dilution (CFU/plate) 10^5 / Dilution (CFU/plate) 10^6: BID, q12h; for Decrease (%) / Δ / CFU/thigh Time post inoculation 2, 26 h / Log (CFU/thigh) Time post inoculation 2, 26 h / CFU/thigh Time post inoculation 2, 26 h, Mean / Log (CFU/thigh) Time post inoculation 2, 26 h, Mean: 26 h; for Decrease (%): decrease in counts compared to the vehicle group; for Δ: difference in bacterial counts relative to the baseline group (2 h initial counts); for CFU/thigh Time post inoculation 2, 26 h / Log (CFU/thigh) Time post inoculation 2, 26 h: individual animals; for CFU/thigh Time post inoculation 2, 26 h, Mean / Log (CFU/thigh) Time post inoculation 2, 26 h, Mean: mean of 5 animals; for Dilution (CFU/plate) 0 / Dilution (CFU/plate) 10^1 / Dilution (CFU/plate) 10^2 / Dilution (CFU/plate) 10^3 / Dilution (CFU/plate) 10^4 / Dilution (CFU/plate) 10^5 / Dilution (CFU/plate) 10^6: raw data; for Dilution (CFU/plate) 0: dilution 0, individual animals; for Dilution (CFU/plate) 10^1: dilution 10^1, individual animals; for Dilution (CFU/plate) 10^2: dilution 10^2, individual animals; for Dilution (CFU/plate) 10^3: dilution 10^3, individual animals; for Dilution (CFU/plate) 10^4: dilution 10^4, individual animals; for Dilution (CFU/plate) 10^5: dilution 10^5, individual animals; for Dilution (CFU/plate) 10^6: dilution 10^6, individual animals

## CCCCCCCCCC(=O)N[C@@H](Cc1c[nH]c2ccccc12)C(=O)N[C@H](CC(N)=O)C(=O)N[C@@H](CC(=O)O)C(=O)N[C@@H]1C(=O)NCC(=O)N[C@@H](CCCN)C(=O)N[C@@H](CC(=O)O)C(=O)N[C@H](C)C(=O)N[C@@H](CC(=O)O)C(=O)NCC(=O)N[C@H](CO)C(=O)N[C@@H]([C@H](C)CC(=O)O)C(=O)N[C@@H](CC(=O)c2ccccc2N)C(=O)O[C@@H]1C [Daptomycin]
[1]
  Half Life: ~8 h
  Vss: ~0.1 L/kg
  clearance: ~0.15 mL/min/kg

## CCCCCC/C=C\CCCCCCCC(=O)N[C@H](CCCN)C(=O)N[C@@H](CO)C(=O)N[C@H](C(=O)N[C@@H](C(=O)N[C@@H](C(=O)N[C@@H]1C(=O)NCC(=O)N[C@@H](C(C)(O)CC)C(=O)N[C@H]([C@@H](C)CC)C(=O)N[C@@H](CCO)C(=O)N[C@@H](C)C(=O)N[C@H]([C@@H](C)CC)C(=O)N[C@@H](CCC(=O)O)C(=O)O[C@@H]1C)[C@@H](O)CN)[C@@H](O)C(=O)O)C(C)C (stereo partly drawn) [Compound 2, Turnercyclamycin B] (Palmitoleoyl-[dOrn]SV[dAsp(3R-OH)][X1]TG[X2][d(aIle)][hSer]A[d(aIle)]E; ester 6-C)
HEK-293 cells
  IC50 against HEK-293: failed to calculate an IC50 value
Staphylococcus aureus
  MIC90: >64 µg/mL
  decrease of Staphylococcus aureus growth: 50%
[2]
  MIC90: 8 µg/mL (≈ 5 µM)
[2]; ATCC 19606
  MIC: 8 µg/mL (≈ 5 µM)
Mouse red blood cell
  hemolytic activity, no activity up to: > 64 µg/mL
A. baylyi
  sensitivity of Δ1ptE A. baylyi strain: still sensitive
  MIC against A. baylyi compared with A. baumannii: same MIC
  nature of growth inhibition: bactericidal, not bacteriostatic
[3]
  MIC90: 2 µg/mL (≈ 1.25 µM)
Escherichia coli
  MIC90: 1 µg/mL (≈ 0.625 µM)
[4]
  MIC90: >64 µg/mL

## Colistin [reference compound]
[2]
  MIC: 2 µg/mL
[5]; ARUP ABC 1
  MIC: 4 µg/mL
[5]; ARUP ABC 2
  MIC: 4 µg/mL
[5]; ARUP ABC 3
  MIC: >32 µg/mL
[5]; CDC AB282
  MIC: 1 µg/mL
[5]; CDC AB286
  MIC: 1 µg/mL
[5]; CDC AB299
  MIC: 2 µg/mL
[5]; CDC AB302
  MIC: 2 µg/mL
[5]; CDC AB303
  MIC: >32 µg/mL
[5]; CDC AB307
  MIC: 8 µg/mL
A. baumannii ATCC 17978; 30 mg/kg SC
  Decrease (%): 100%
  Δ: −2.73^#
  CFU/thigh Time post inoculation 2, 26 h: 1.77 × 10^3 CFU/thigh and 5.73 × 10^3 CFU/thigh and 5.64 × 10^3 CFU/thigh and 1.98 × 10^3 CFU/thigh and 3.57 × 10^3 CFU/thigh
  Log (CFU/thigh) Time post inoculation 2, 26 h: 3.25 Log (CFU/thigh) and 3.76 Log (CFU/thigh) and 3.75 Log (CFU/thigh) and 3.30 Log (CFU/thigh) and 3.55 Log (CFU/thigh)
  CFU/thigh Time post inoculation 2, 26 h, Mean: 3.74 × 10^3 CFU/thigh
  Log (CFU/thigh) Time post inoculation 2, 26 h, Mean: 3.52* Log (CFU/thigh)
  Dilution (CFU/plate) 0: 59 CFU/plate and 191 CFU/plate and 188 CFU/plate and 66 CFU/plate and 119 CFU/plate
  Dilution (CFU/plate) 10^1: 3 CFU/plate and 20 CFU/plate and 21 CFU/plate and 8 CFU/plate and 13 CFU/plate
  Dilution (CFU/plate) 10^2: 0 CFU/plate (3×) and 1 CFU/plate (2×)
  Dilution (CFU/plate) 10^3: 0 CFU/plate

## CCCCCCCCCCCCCC(=O)N[C@H](CCCN)C(=O)N[C@@H](CO)C(=O)N[C@H](C(=O)N[C@@H](C(=O)N[C@@H](C(=O)N[C@@H]1C(=O)NCC(=O)N[C@@H](C(C)(O)CC)C(=O)N[C@H]([C@@H](C)CC)C(=O)N[C@@H](CCO)C(=O)N[C@@H](C)C(=O)N[C@H]([C@@H](C)CC)C(=O)N[C@@H](CCC(=O)O)C(=O)O[C@@H]1C)[C@@H](O)CN)[C@@H](O)C(=O)O)C(C)C (stereo partly drawn) [Compound 1, Turnercyclamycin A] (Myristoyl-[dOrn]SV[dAsp(3R-OH)][X1]TG[X2][d(aIle)][hSer]A[d(aIle)]E; ester 6-C)
Staphylococcus aureus
  MIC90: >64 µg/mL
  decrease of Staphylococcus aureus growth: 50%
[2]
  MIC90: 8 µg/mL (≈ 5.09 µM)
[2]; ATCC 19606
  MIC: 8 µg/mL (≈ 5.09 µM)
A. baylyi
  sensitivity of Δ1ptE A. baylyi strain: still sensitive
  MIC against A. baylyi compared with A. baumannii: same MIC
  nature of growth inhibition: bactericidal, not bacteriostatic
[3]
  MIC90: 2 µg/mL (≈ 1.27 µM)
Escherichia coli
  MIC90: 1 µg/mL (≈ 0.636 µM)
A. baumannii ATCC 17978; 6.25 mg/kg IV
  Decrease (%): 27%
  Δ: 2.27
  CFU/thigh Time post inoculation 2, 26 h: 4.59 × 10^7 CFU/thigh and 3.63 × 10^7 CFU/thigh and 4.62 × 10^7 CFU/thigh and 6.93 × 10^7 CFU/thigh and 7.71 × 10^7 CFU/thigh
  Log (CFU/thigh) Time post inoculation 2, 26 h: 7.66 Log (CFU/thigh) (2×) and 7.56 Log (CFU/thigh) and 7.84 Log (CFU/thigh) and 7.89 Log (CFU/thigh)
  CFU/thigh Time post inoculation 2, 26 h, Mean: 5.50 × 10^7 CFU/thigh
  Log (CFU/thigh) Time post inoculation 2, 26 h, Mean: 7.72 Log (CFU/thigh)
  Dilution (CFU/plate) 0: >300 CFU/plate
  Dilution (CFU/plate) 10^1: >300 CFU/plate
  Dilution (CFU/plate) 10^2: >300 CFU/plate
  Dilution (CFU/plate) 10^3: >300 CFU/plate
  Dilution (CFU/plate) 10^4: 153 CFU/plate and 121 CFU/plate and 154 CFU/plate and 231 CFU/plate and 257 CFU/plate
  Dilution (CFU/plate) 10^5: 21 CFU/plate and 9 CFU/plate and 16 CFU/plate and 24 CFU/plate and 26 CFU/plate
  Dilution (CFU/plate) 10^6: 3 CFU/plate (2×) and 1 CFU/plate and 0 CFU/plate and 2 CFU/plate
A. baumannii ATCC 17978; 12.5 mg/kg IV twice daily, p<0.05, CFU at 26 hours
  decrease in bacterial CFU/thigh: 98%
A. baumannii ATCC 17978; 12.5 mg/kg IV
  Decrease (%): 98%
  Δ: 0.10
  CFU/thigh Time post inoculation 2, 26 h: 5.67 × 10^5 CFU/thigh and 7.02 × 10^6 CFU/thigh and 7.89 × 10^5 CFU/thigh and 1.32 × 10^5 CFU/thigh and 1.35 × 10^4 CFU/thigh
  Log (CFU/thigh) Time post inoculation 2, 26 h: 5.75 Log (CFU/thigh) and 6.85 Log (CFU/thigh) and 5.90 Log (CFU/thigh) and 5.12 Log (CFU/thigh) and 4.13 Log (CFU/thigh)
  CFU/thigh Time post inoculation 2, 26 h, Mean: 1.70 × 10^6 CFU/thigh
  Log (CFU/thigh) Time post inoculation 2, 26 h, Mean: 5.55* Log (CFU/thigh)
  Dilution (CFU/plate) 0: >300 CFU/plate
  Dilution (CFU/plate) 10^1: >300 CFU/plate (4×) and 45 CFU/plate
  Dilution (CFU/plate) 10^2: 189 CFU/plate and >300 CFU/plate and 263 CFU/plate and 44 CFU/plate and 4 CFU/plate
  Dilution (CFU/plate) 10^3: 12 CFU/plate and 234 CFU/plate and 24 CFU/plate and 2 CFU/plate and 0 CFU/plate
  Dilution (CFU/plate) 10^4: 0 CFU/plate (2×) and 1 CFU/plate and 28 CFU/plate and 2 CFU/plate
  Dilution (CFU/plate) 10^5: 0 CFU/plate (4×) and 1 CFU/plate
  Dilution (CFU/plate) 10^6: 0 CFU/plate
A. baumannii ATCC 17978; 25 mg/kg IV twice daily, CFU at 26 hours
  clearing of bacterial CFU/thigh: 99.99%
A. baumannii ATCC 17978; 25 mg/kg IV
  Decrease (%): 100%
  Δ: −1.65^#
  CFU/thigh Time post inoculation 2, 26 h: 5.91 × 10^3 CFU/thigh and 7.68 × 10^3 CFU/thigh and 8.76 × 10^3 CFU/thigh and 1.38 × 10^4 CFU/thigh and 1.89 × 10^3 CFU/thigh
  Log (CFU/thigh) Time post inoculation 2, 26 h: 3.77 Log (CFU/thigh) and 3.89 Log (CFU/thigh) and 3.94 Log (CFU/thigh) and 4.14 Log (CFU/thigh) and 3.28 Log (CFU/thigh)
  CFU/thigh Time post inoculation 2, 26 h, Mean: 7.61 × 10^3 CFU/thigh
  Log (CFU/thigh) Time post inoculation 2, 26 h, Mean: 3.80* Log (CFU/thigh)
  Dilution (CFU/plate) 0: 197 CFU/plate and 256 CFU/plate and 292 CFU/plate and >300 CFU/plate and 63 CFU/plate
  Dilution (CFU/plate) 10^1: 26 CFU/plate and 32 CFU/plate and 29 CFU/plate and 46 CFU/plate and 8 CFU/plate
  Dilution (CFU/plate) 10^2: 3 CFU/plate (2×) and 1 CFU/plate (2×) and 4 CFU/plate
  Dilution (CFU/plate) 10^3: 0 CFU/plate
  Dilution (CFU/plate) 10^4: 0 CFU/plate
  Dilution (CFU/plate) 10^5: 0 CFU/plate
  Dilution (CFU/plate) 10^6: 0 CFU/plate
[4]
  MIC90: >64 µg/mL
